# Source: patent US12661338B2, “Heterocyclic compounds as modulators of beta-catenin / TCF4 interaction” (AGENCY FOR SCIENCE, TECHNOLOGY AND RESEARCH, priority 2019, dated 2026)
# How the values were obtained:
# Type in all cases: cell-based
# [1] = test system: CRC2413; assay: Viability of primary patient-derived colorectal cancer cell line
# [2] = test system: CRC2367; assay: as above
# [3] = test system: CRC1837; assay: as above; conditions: CRC1837, Liver Met
# [4] = test system: Myc reporter (Luc)-HCT116 cells; assay: Myc signalling reporter dose response; conditions: Homo sapiens, HCT-116, 24 hr
# Experimental: The Myc reporter (Luc)-HCT116 cells were seeded as 25,000 cells in 100 μL assay medium per well in 96-well plates (Corning cat. #3903, Falcon cat. #353072). The assay medium consists of the growth medium without G-418. The next day, 4-fold dilutions of the compounds in DMSO were added to the cells at a final concentration of 1% DMSO. After 24 hr incubation, the viability of the cells was determined with PrestoBlue cell viability reagent while the luciferase reporter activity was determined with Steady-Glo luciferase reagent.
# (§1) The average signal from DMSO treated wells was calculated for each plate, and the signal from each treatment well was normalized against the average DMSO signal from the respective plate. The normalized values were plotted against the concentrations tested using GraphPad Prism 5, and the EC50 values were determined through either three- or four-parameter nonlinear regression.
# [5] = test system: DLD-1 cells; assay: Dose response viability of CRC cells (CellTiter-Glo); conditions: Homo sapiens, 24 hr
# Experimental: (§2) HCT116, DLD-1, and SW480 cells were seeded as 5,000 cells in 100 μL growth medium per well in 96-well plates (Corning cat. #3903). The next day, 5-fold dilutions of the compounds in DMSO were added to the cells at a final concentration of 1% DMSO. After 24 hr incubation, the viability of the cells was determined with CellTiter-Glo luminescent cell viability reagent (Promega cat. #G7573) according to the manufacturer's protocol.
# as §1
# [6] = test system: HCT116 cells; assay: as above; conditions: Homo sapiens, HCT-116, 24 hr
# Experimental: as §2, §1
# [7] = test system: SW480 cells; assay: as above; conditions: Homo sapiens, 24 hr
# Experimental: as §2, §1
# [8] = test system: HCT116 cells; assay: Spheroid formation assay; conditions: HCT116, 30 μM
# Experimental: HCT116, DLD-1, and SW480 cells were seeded as 150 cells in 200 μL spheroid medium per well in 96-well ultra-low attachment plates (Corning cat. #3474). The compounds were added on the day of cell seeding at a final concentration of 30 μM, 0.5% DMSO. The cells were grown at 37° C., 5% CO2 and images of the spheroids formed were taken on days 7 and 10 after cell seeding using the Operetta CLS system (Perkin Elmer).
# [9] = test system: CRC1258; assay: Viability of primary patient-derived colorectal cancer cell line; conditions: CRC1258, Liver Met
# [10] = test system: CRC2423; assay: as above
# [11] = test system: CRC1846; assay: as above
# [12] = target: T1, β-cat-TCF4 interaction (Homo sapiens, UniProt P35222, DEL45-45); assay: Co-immunoprecipitation of β-cat and TCF4 in HCT116 cells; conditions: 18 hr
# T1 construct: endogenous in cells; host or cells: HCT116
# T1 sequence (P35222 with tags, fused parts or gaps DEL45-45): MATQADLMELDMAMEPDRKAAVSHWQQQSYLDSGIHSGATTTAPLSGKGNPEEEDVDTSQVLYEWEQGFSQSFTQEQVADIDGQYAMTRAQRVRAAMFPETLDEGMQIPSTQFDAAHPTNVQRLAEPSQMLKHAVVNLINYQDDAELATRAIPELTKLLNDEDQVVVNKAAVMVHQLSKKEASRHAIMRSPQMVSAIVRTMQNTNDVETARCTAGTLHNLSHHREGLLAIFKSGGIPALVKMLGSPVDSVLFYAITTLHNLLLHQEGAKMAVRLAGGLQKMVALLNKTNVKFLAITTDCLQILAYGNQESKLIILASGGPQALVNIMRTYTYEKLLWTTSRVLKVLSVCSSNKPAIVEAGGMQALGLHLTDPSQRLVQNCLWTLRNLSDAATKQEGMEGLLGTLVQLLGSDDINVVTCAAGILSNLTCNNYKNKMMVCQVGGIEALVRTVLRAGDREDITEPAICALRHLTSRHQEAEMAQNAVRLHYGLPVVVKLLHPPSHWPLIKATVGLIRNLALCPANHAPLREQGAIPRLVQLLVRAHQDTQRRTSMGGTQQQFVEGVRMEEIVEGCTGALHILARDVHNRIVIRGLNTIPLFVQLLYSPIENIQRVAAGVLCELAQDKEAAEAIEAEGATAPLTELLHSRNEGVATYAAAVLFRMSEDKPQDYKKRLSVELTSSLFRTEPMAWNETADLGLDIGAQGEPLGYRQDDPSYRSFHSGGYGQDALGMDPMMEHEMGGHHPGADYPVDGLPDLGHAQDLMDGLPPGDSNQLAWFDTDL
# Experimental: HCT116 cells were treated for 18 hr with compounds at the indicated concentrations. Cells were lysed on ice in lysis buffer containing 20 mM HEPES, pH 7.5, 137 mM NaCl, 1.5 mM MgCl2, 1 mM EGTA, 1 mM dithiothreitol (DTT), 1% Triton X-100, 10% glycerol, cOmplete protease inhibitor cocktail (Roche cat. #11697498001), and 1 mM Na3VO4. Each sample of cleared protein lysate was incubated overnight at 4° C. with 4 μg anti-β-cat antibody (Sigma cat. #C7207) followed by 1 hr incubation with a 50 μL slurry of Dynabeads Protein G (Invitrogen cat. #10004D) at 4° C. The beads were then washed three times with lysis buffer at 4° C., and the bound protein was eluted by heating the beads with 30 μL (per sample) of SDS sample buffer at 95° C. for 7 min. protein was resolved by SDS-PAGE and blotted onto PVDF membrane (Millipore cat. #IPVH00010). Primary antibodies were incubated overnight at 4° C. and the blots were detected with either IRDye 800CW goat anti-rabbit antibody (LI-COR cat. #926-32211) or IRDye 680RD goat anti-mouse antibody (LI-COR cat. #926-68070) at 1:5000 dilution. Signals were visualized with the LI-COR Odyssey CLx imaging system and bands were quantified using LI-COR Image Studio data analysis software. […]
# [13] = test system: CRC1671; assay: Viability of primary patient-derived colorectal cancer cell line
# [14] = test system: HCT116 cells; assay: Proliferation assay (CellTiter-Glo); conditions: 10 μM daily
# Experimental: HCT 116 cells were seeded as 3,000 cells in 100 μL growth medium per well in 96-well plates (Corning cat. #3903) and allowed to attached overnight. Cells were then treated continuously with compounds at a final concentration of 10 μM, 0.1% DMSO, for 4 days with daily medium change. Cell proliferation each day was determined using CellTiter-Glo luminescent cell viability assay (Promega cat. #G7573) according to the manufacturer's protocol.
# [15] = test system: CRC1489; assay: Viability of primary patient-derived colorectal cancer cell line
# [16] = test system: CRC2440; assay: as above
smiles,measurement,setting,value
CCc1ccc(OCc2nnc(SC3CCCC3=O)n2C(C)c2ccccc2)cc1 (stereo not shown) [GB1874],EC50,[1],16 µM
same,EC50,[2],20 µM
same,EC50,[3],21 µM
same,IC50,[4],32 µM
same,EC50,[5],28 µM
same,EC50,[6],45 µM
same,EC50,[7],24 µM
same,spheroid formation,[8],markedly reduce survival of the cancer stem-like cells
same,EC50,[9],27 µM
same,EC50,[10],30 µM
same,EC50,[11],17 µM
same,β-cat-TCF4 interaction (co-IP),[12],reduce the β-cat-TCF4 interaction to the same extent as iCRT3
same,EC50,[13],30 µM
same,growth of HCT116 cells,[14],effectively inhibited the growth of HCT116 cells
same,EC50,[15],41 µM
same,EC50,[16],16 µM
